Each compound was assayed against T1, hPRB (Homo sapiens, UniProt P06401) (assay: PR transactivation assay (GRE2-Luc) in MDA-MB-231 iPRAB cells conditionally expressing hPRB). Conditions: not given.
T1 sequence (P06401 1-933): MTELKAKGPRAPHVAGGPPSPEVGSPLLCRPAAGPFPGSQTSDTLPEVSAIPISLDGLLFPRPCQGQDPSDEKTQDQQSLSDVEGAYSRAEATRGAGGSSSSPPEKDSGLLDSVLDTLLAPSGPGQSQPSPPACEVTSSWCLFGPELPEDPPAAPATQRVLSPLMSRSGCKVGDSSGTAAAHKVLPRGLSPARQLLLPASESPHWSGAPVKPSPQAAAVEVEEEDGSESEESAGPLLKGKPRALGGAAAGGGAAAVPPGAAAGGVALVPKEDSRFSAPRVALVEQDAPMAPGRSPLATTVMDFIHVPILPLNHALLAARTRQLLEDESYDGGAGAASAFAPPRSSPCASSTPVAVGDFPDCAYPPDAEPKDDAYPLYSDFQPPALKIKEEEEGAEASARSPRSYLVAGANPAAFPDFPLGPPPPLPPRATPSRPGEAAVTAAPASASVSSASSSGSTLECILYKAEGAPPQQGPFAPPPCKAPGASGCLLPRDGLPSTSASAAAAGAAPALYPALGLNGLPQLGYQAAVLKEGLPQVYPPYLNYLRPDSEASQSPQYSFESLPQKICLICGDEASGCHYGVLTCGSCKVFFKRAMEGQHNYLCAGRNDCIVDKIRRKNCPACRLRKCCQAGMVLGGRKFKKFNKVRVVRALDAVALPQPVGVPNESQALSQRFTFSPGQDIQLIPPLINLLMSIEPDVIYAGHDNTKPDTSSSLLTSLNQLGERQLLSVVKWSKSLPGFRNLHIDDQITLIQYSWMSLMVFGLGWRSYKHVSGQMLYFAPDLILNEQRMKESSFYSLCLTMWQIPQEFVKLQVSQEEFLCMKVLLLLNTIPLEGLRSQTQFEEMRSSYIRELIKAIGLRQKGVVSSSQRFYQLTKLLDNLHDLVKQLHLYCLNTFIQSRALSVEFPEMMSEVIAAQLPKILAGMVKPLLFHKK
Assay type: cell-based
Design: expressed in transfected cells
Method: Establishment of the MDA-MB-231 iPRAB cells.
The PR negative breast cancer cells MDA-MB-231 were routinely maintained in RPMI 1640 medium with L-glutamine enriched with 5% fetal calf serum (FCS) and supplemented with antibiotics (penicillin 100 UI/ml, streptomycin 100 μg/ml). MDA MB-231 iPRAB cells allowing the bi-inducible expression of PRA and PRB isoforms were generated in two steps. First, pZX-TR vector expressing inducer proteins required for Tet-on (Tet-Repressor) and Ecdysone receptor-based system (EcR and RXR hybrids) was engineered using pcDNA6-TR (T-REx system, Invitrogen) and pZRD (Lessard, J. Prostate 2007 67, 808) derived from Rheoswitch system (NE Biolabs). Transfection of MDA-MB-231 cells by pZX-TR (harboring zeocin resistant gene) was performed using Lipofectamine 2000 (Invitrogen). Three hundred clones resistant to Zeocin (1 μg/ml) were isolated, amplified and screened for the proper functioning of both RheoSwitch and Tet-on inducible systems by transient transfection with pGal-4-luciferase or pTO-luciferase reporter genes generated as described. Luciferase activity was determined in the absence or presence of respective inducer ligand RSL1 (diacylhydrazine, a non-steroidal agonist of ecdysone, NE Biolabs) (500 nM) or Doxycycline (Dox, a tetracyclin analog, Sigma-Aldrich) (1 μg/ml) after 24 h. The clone that produced minimal background in the absence of both RSL1 and Dox and high inducible expression level on reporter gene assays by both systems was finally selected, verified and amplified (clone 250). This cell line was then further stably transfected by PR isoforms expressing vectors specifically engineered: pGaluas-PRA (harboring neomycin resistant gene) expressing PRA under the control of Gal4 Upstream Activating Sequences upstream of a truncated CMV promoter, and pTO-PRB (harboring blasticidin resistant gene) expressing PRB under the control of TetO2 responsive elements downstream of the full CMV promoter. Clones resistant to zeocin (1 μg/ml), neomycin (500 μg/ml) and blasticidin (2 μg/ml) were then isolated, amplified and screened by Western blot for PR isoforms expression in the absence or presence of both RSL1 (500 nM) and Dox (1 μg/ml) after 24 h. […] It was used to evaluate APRn properties and was defined as MDA-MB-231 iPRAB cells conditionally expressing PRB in the presence of doxycyclin (1 μg/ml).
PR Transactivation Assays in MDA-MB-231 iPRAB Cells.
The cells were cultured in 96-well plates in RPMI 1640 medium with L-glutamine without phenol red, enriched with 5% DCC serum containing inducer ligand RSL1 (500 nM) or Dox (1 μg/ml) for PRA or PRB expression during 24 h. Cells were then transfected with GRE2-Luc (100 ng) and β-galactosidase (20 ng) plasmids during 6 h, using Lipofectamine 2000 (Invitrogen). […] Whole cell extracts were collected using lysis buffer (Promega). Luciferase and β-galactosidase activity or total protein contents (BCA assay) were determined using a luminometer (Victor 378, Perkin Elmer). Luciferase activity was normalized by β-galactosidase activity or total protein contents.
All the synthesized APRn were classified in 4 series depending on the nature of their C3 substituent (R1/R′1 groups). The first one (series 1) includes APRn with no C3 substituent (R1═R′1═H) whereas series 2, 3 and 4 are related to APRn bearing a methoxyl (R1═OMe), a hydroxyl (R1═OH) and a fluorine atom (R1═F), respectively. The agonist/antagonist activities of APRn were determined either in human HEK293T cells transiently expressing hPRB or in human MDA-MB-231 iPRAB cells conditionally expressing hPRB, by using a luciferase reporter gene placed under the control of a glucocorticoid response element (GRE2-Luc). The APRn “agonist efficacy” was determined from the luciferase activity measured in the presence of APRn (1 μM). […] The “agonist efficacy” and “antagonist efficacy” are expressed as defined in the biological protocols section.
With `C[C@@H]1CCC2C3CC=C4C[C@@H](F)CC[C@]4(C)C3CC[C@]2(C)[C@H]1F` (stereo partly drawn) [APR-19, 3β,17α-Difluoro-17α-methyl-D-Homo-pregn-5-ene] the IC50 was about 500 nM.
`CC#C[C@]1(O)CCC2C3CC[C@H]4C[C@@H](F)CC[C@]4(C)C3CC[C@@]21C` (stereo partly drawn) [APR-43, 3β-Fluoro-17α-(1-propynyl)-5α-androstan-17β-ol] gave an IC50 of about 500 nM.
`C[C@]12CCC3C(CC=C4C[C@@H](F)CC[C@@H]43)C1CCC2=O` (stereo partly drawn) [APR-47, 3β-Fluoro-19-nor-androst-5-en-17-one] was tested, and the IC50 was about 500 nM.
`CC#C[C@]1(O)CCC2C3CC=C4C[C@@H](F)CC[C@@H]4C3CC[C@@]21C` (stereo partly drawn) [APR-51, 3β-Fluoro-17α-(1-propynyl)-19-nor-androst-5-en-17β-ol] showed an IC50 of about 500 nM.
Work on `CC#C[C@]1(O)CCC2C3CC[C@H]4CCCC[C@@H]4C3CC[C@@]21C` (stereo partly drawn) [APR-54, 17α-(1-Propynyl)-19-nor-5-androstan-17β-ol] yielded an IC50 of about 500 nM.

Same assay, conditions: dose response curves, MDA-MB-231 iPRAB cells expressing hPRB, FIG. 9; read-out: IC50
In the case of `CC(=O)[C@H]1CC[C@H]2[C@@H]3CC=C4C[C@@H](F)CC[C@]4(C)[C@H]3CC[C@]12C` [APR-16, 3β-Fluoropregn-5-en-20-one], the IC50 is reported as about 500 nM.

Reference: patent US20130203718A1 (priority 2010, published 2013)
